# Test results as given in patent US7994123B2, “Hybrid proteins with ErbB4 extracellular domain and neuregulin heparin-binding domain for targeting” (Wayne State University, priority 2004, dated 2011).
# T1: NRG1 (Homo sapiens, UniProt Q02297)
# T1 construct: the intact IgEGF form of NRG1 corresponds to amino acids 14-246; purchased R&D (Minneapolis Minn.)
# T1 sequence (Q02297 14-246 isoform Q02297-6): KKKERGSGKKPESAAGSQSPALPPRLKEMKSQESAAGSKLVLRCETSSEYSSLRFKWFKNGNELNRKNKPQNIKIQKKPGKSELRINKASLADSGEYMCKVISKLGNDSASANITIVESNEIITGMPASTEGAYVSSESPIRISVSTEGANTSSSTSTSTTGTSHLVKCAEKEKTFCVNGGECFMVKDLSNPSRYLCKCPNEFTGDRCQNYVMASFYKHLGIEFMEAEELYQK
# Columns and labels:
# [1] = target: T1, NRG1; test: Gel mobility shift assay (GMSA); type: binding; conditions: 35 ng NRG1, 20 minutes; heparins at 0, 1, 10, 100 μg/ml
# Protocol: Gel Mobility Shift Assay (GMSA)—NRG1 alone, or NRG1 plus various heparins at various concentrations were incubated with binding buffer (2.7 mM KCl, 4.3 mM Na2HPO4, 10 mM MgCl2, 1.4 mM KH2PO4, 12% glycerol, 1 mM DTT.) for 20 minutes and run on a 6% (29:1 acrylamide:bis) non-denaturing gel (10 mM Tris (pH 7.4), 1 mM EDTA) for 20 minutes at 200 V as described (Wu, Z L et al. (2002) FASEB J 16, 539-45; Wu, Z L et al. (2003) J Biol Chem 278:17121-29). […] However, band resolution was sharper at pH 8.0 and was therefore used for our studies here. Protein was transferred to a polyvinylidene fluoride membrane (Millipore corp.) for 1 hr at 100V. NRG1 bands were detected by western blot analysis using a polyclonal rabbit antiserum (AD03) developed against the IgEGF polypeptide (Assay Designs Inc.). The filters were then probed with a goat anti-rabbit antibody coupled to peroxidase (Chemicon), exposed to X-blue film (Eastman Kodak Co.) after treatment with chemiluminescence reagents, and bands were quantified as above.
# [2] = test system: NRG1-induced erbB receptor phosphorylation (p185) in L6 cells; test: Inhibition of NRG1-induced p185 by heparins in L6 cells; type: cell-based; conditions: for inhibition of NRG1-induced erbB receptor phosphorylation (p185): 75 pM IgEGF NRG1 pre-incubated with heparin 20 minutes, L6 cells 45 minutes
# Protocol: (§1) Cell Cultures and Western Blots for p185 phosphorylation—L6 Cells were used to quantify erbB receptor phosphotyrosine (p185) as described (WO 03/012045; Li & Loeb, supra). Cells were plated at 50,000 cells/well and grown for 8 days. Chlorate was filter sterilized and incubated with L6 cells for 2 days prior to the assay. Inhibition assays of p185 were performed by pre-incubating 75 pM of IgEGF NRG1 and various concentrations of the heparins at room temp for 20 minutes. 150 μL of this mixture was then applied to 8 day-old L6 cells for 45 minutes at 37° C. in […]. The medium was aspirated, and the cells were solubilized in 50 μL sample buffer and boiled for 5 minutes as described previously (WO 03/012045; Li & Loeb, supra) 15 μL of this was resolved on a 5% denaturing polyacrylamide gel. Phosphorylated forms of the erbB receptors (p185) were detected by western blot analysis using the phosphotyrosine monoclonal antibody 4G10 (Upstate) and then verified and quantified by reprobing with a mixture of antibodies against erbB2 (Neomarkers Ab-17) and erbB3 (Neomarkers Ab-6). Quantitation was performed by determining the ratio of p185/(erbB2+erbB3) using Metamorph Imaging System (Universal Imaging Corp) on non-saturated images as described (Esper, R M & Loeb, J A (2004) J Neurosci 24:6218-27)
# [3] = test system: MCF10CA1 human breast cancer cells; test: Cell proliferation assay, MCF10CA1; type: cell-based; conditions: IgB4 conditioned media, 10 μM AG1478 or 100 μg/ml Trastuzumab; for MCF10CA1 proliferation with exogenous NRG: 1 nM NRG
# Protocol: Cell proliferation assays: All three breast epithelial cell lines were plated at 5000 cells/well in 48 well plates in regular MCF10A/AT or MCF10CA1 media. After incubation for 3 days, 1 nM NRG in MCF10A/AT media or just MCF10A/AT media alone were applied to the cells for another 24 hours followed by washing them with culture media and then counting cell numbers using an hemocytometer on the 4th, 5th, 6th, 7th and 8th day.
# (§2) After 2 days, the Optimem I conditioned media was concentrated by Centricon at 4° C. 40 μl of IgB4 conditioned media or 10 μM of tyrosine kinase inhibitor AG1478 were combined with […] 1 nM NRG in MCF10A/AT media for 15 min at room temperature before being added to MCF10CA1 cells for 30 min treatment. […] The amount of each antagonist was determined empirically based on its ability to block NRG-induced activation of L6 cells.
# [4] = test system: erbB receptor phosphorylation (p185) in MCF10CA1 cells; test: p185 receptor phosphorylation western blot, MCF10CA1; type: cell-based, human; conditions: for exogenous NRG-induced p185 erbB receptor phosphorylation: AG1478 or 100 μg/ml Trastuzumab (24 h pre-treatment)
# Protocol: Western blots and L6 muscle assays: P185 receptor phosphorylation of the three cell lines was measured by phosphotyrosine western blots after NRG treatment for 30 min on 3 day old cultures as described in WO 03/012045 and Li Q & Loeb J A (2001) J Biol Chem; 276:38068-75. […] The media was discarded and phosphotyrosine western blots were performed as above. The membranes were stripped and reprobed with polyclonal rabbit erbB2 for the detection of overall erbB2 protein that was used for quantitation.
# as §2
# [5] = test system: erbB phosphorylation (p185) in L6 muscle cells; test: NRG1-induced erbB phosphorylation after reducing endogenous HSPG sulfation; type: cell-based; conditions: chlorate 48 hours
# Protocol: as §1, with “24:6218-27) […]” for “24:6218-27)”
# [6] = 1 nM NRG, 30 min, IgB4 conditioned media
molecule,measurement,setting,value
De-6O sulfated heparin,shift of NRG1 mobility (NRG1 binding),[1],shifted NRG1 better than De-N sulfated heparin but less than fully sulfated heparin
same,inhibition of NRG1-induced erbB receptor phosphorylation (p185),[2],intermediate effects
heparin,shift of NRG1 mobility (NRG1 binding),[1],shift NRG1 in a dose-dependent manner
same,inhibition of NRG1-induced erbB receptor phosphorylation (p185),[2],inhibited by fully-sulfated heparin in a dose-dependent manner
"COc1cc2ncnc(Nc3cccc(Cl)c3)c2cc1OC [AG1478, reference compound]",MCF10CA1 proliferation with exogenous NRG,[3],reduced the growth rate
same,MCF10CA1 growth rate without exogenous NRG,[3],reduced the growth rate
same,EGF receptor phosphorylation (lower band),"[4]; 1 nM NRG, 30 min","reducing both p185 (erbB2/3, upper band) and EGF receptor phosphorylation (lower band) in a dose dependent manner"
same,exogenous NRG-induced p185 erbB receptor phosphorylation,[4]; [6],blocked NRG-induced erbB signaling
"[O-][Cl+2]([O-])O [chlorate, Sodium chlorate]","reduction of receptor phosphorylation, EGF form",[5]; EGF form lacking the heparin-binding domain,no reduction
same,"reduction of receptor phosphorylation, IgEGF NRG1",[5]; full-length heparin-binding NRG1 (IgEGF),53%
De-2O sulfated heparin,shift of NRG1 mobility (NRG1 binding),[1],shifted NRG1 better than De-N sulfated heparin but less than fully sulfated heparin
same,inhibition of NRG1-induced erbB receptor phosphorylation (p185),[2],intermediate effects
De-N sulfated heparin,shift of NRG1 mobility (NRG1 binding),[1],did not shift NRG1
same,inhibition of NRG1-induced erbB receptor phosphorylation (p185),[2],little inhibition even at 100 μg/ml
same,effect on receptor phosphorylation at low concentration,[2]; 1 μg/ml,modest stimulatory effect
"IgB4: soluble NRG antagonist: ECD of erbB4 receptor fused to Fc portion of human IgG1 (protein, left off: a dimerising Fc or GST, soluble NRG antagonist: ECD of erbB4 receptor fused to Fc portion of human IgG1) QSVCAGTENKLSSLSDLEQQYRALRKYYENCEVVMGNLEITSIEHNRDLSFLRSVREVTGYVLVALNQFRYLPLENLRIIRGTKLYEDRYALAIFLNYRKDGNFGLQELGLKNLTEILNGGVYVDQNKFLCYADTIHWQDIVRNPWPSNLTLVSTNGSSGCGRCHKSCTGRCWGPTENHCQTLTRTVCAEQCDGRCYGPYVSDCCHRECAGGCSGPKDTDCFACMNFNDSGACVTQCPQTFVYNPTTFQLEHNFNAKYTYGAFCVKKCPHNFVVDSSSCVRACPSSKMEVEENGIKMCKPCTDICPKACDGIGTGSLMSAQTVDSSNIDKFINCTKINGNLIFLVTGIHGDPYNAIEAIDPEKLNVFRTVREITGFLNIQSWPPNMTDFSVFSNLVTIGGRVLYSGLSLLILKQQGITSLQFQSLKEISAGNIYITDNSNLCYYHTINWTTLFSTINQRIVIRDNRKAENCTAEGMVCNHLCSSDGCWGPGPDQCLSCRRFSRGRICIESCNLYDGEFREFENGSICVECDPQCEKMEDGLLTCHGPGPDNCTKCSHFKDGPNCVEKCPDGLQGANSFIFKYADPDRECHPCHPNCTQGCNGPTSHDCIYYPWTGHSTLPQHARTP",MCF10CA1 proliferation with exogenous NRG,[3],blocked MCF10CAL cell proliferation induced by exogenous NRG treatment
same,MCF10CA1 growth rate without exogenous NRG,[3],significantly reduced the baseline growth rate
same,exogenous NRG-induced p185 erbB receptor phosphorylation,[4]; [6],effectively blocked
same,basal p185 erbB receptor phosphorylation,"[4]; no exogenous NRG, IgB4 conditioned media, 10 μM AG1478 or 100 μg/ml Trastuzumab (24 h pre-treatment)",effectively blocked
